The source of these data is US10105552B2, “Formulations of histone deacetylase inhibitor and uses thereof” (Pharmacyclics LLC, priority 2009, dated 2018).

Some results are limits rather than exact numbers.

Series [1] in a line: Clinical trial PK of Compound 1 solution, oral and IV dosing. Conditions: human, in vivo, humans. The procedure:
In clinical trials involving humans with cancer, Compound 1 in solution form was administered at 2 mg/kg as a single oral dose and as multiple 2-hour IV infusion doses.
Compound 1 appears to be preferentially absorbed in the intestines.

Series [2] concerns Neuroblastoma cell lines and patient-derived primary neuroblastoma cultures. Put plainly: Neuroblastoma cell viability, calcein AM assay. Type of series: cell-based. Conditions: 48 hours treatment. The procedure: Neuroblastoma cell lines and patient-derived primary neuroblastoma cultures were treated with bortezomib, Compound 1 alone or a combination of both agents for 48 hours. Cells were also treated with HDAC inhibitors vorinostat, sodium butyrate, and valproic acid and viability was assessed by calcein AM assays. mRNA from treated cells was evaluated at 6 and 24 hours using U133+ mRNA expression arrays and Ingenuity analysis. Dichlorofluorescein (DCF) was used to measure reactive oxygen species (ROS). Cell viability assays were repeated in the presence of N-acetylcysteine (NAC). Western blot evaluated caspase-3 and PARP cleavage. Nude mice were injected with 10^7 SMS-KCNR cells subcutaneously and treated with daily doses of 0.5 mg/kg bortezomib, 12.5 mg/kg Compound 1, or a combination of the two agents. Tumors were measured and imaged twice per week.

The nature of series [3]: Phase 1 trial, safety/tolerability and response by oral dosing schedule. Type of series: in vivo. The procedure: This is a Phase 1 dose-escalation study of the safety, pharmacokinetics, and pharmacodynamics of Compound 1, HCl administered orally in patients with advanced cancer.
In the Phase 1 dose escalation study, up to 7 cohorts will receive Compound 1, HCl orally at doses starting at 30 mg/m^2, approximately 4-6 hours apart, up to 90 mg/m^2, 2 or 3 times a day according to 3 different dosing schedules within 28 day cycle (5 days of dosing followed by 2 days of no dosing; 5 days of dosing followed by 9 days of no dosing; 7 days of dosing followed by 7 days of no dosing) until the maximum tolerated dose is reached.
The doses were given at the same time each day. […] The two doses were given at the same time each day, with the second dose being administered approximately 4 to 6 hours from the first dose.
In the event that a patient experiences a treatment-related decrease in platelets to <25,000 per mm^2, the severity of the thrombocytopenia may be ameliorated by dosing in cycles consisting 5 consecutive days of oral dosing followed by 9 consecutive days without dosing.

A further series concerns RAD51. Put plainly: Pre-clinical models, DNA repair gene expression.
The subject of series [4] is lung, colon, prostate, pancreatic and brain tumors. Put plainly: Preclinical mouse tumor models. Type of series: in vivo.
For series [5], the system named is primary human tumors from patients with colon, ovarian, lung and many hematological cancers. The series can be described thus: Ex vivo activity in primary human tumors. Type of series: cell-based.
The subject of another series is tumor cell lines. The series can be described thus: Preclinical activity against tumor cell lines. Type of series: cell-based. Conditions: many tumor cell lines.

On to `CN(C)Cc1c(C(=O)NCCOc2ccc(C(=O)NO)cc2)oc2ccccc12` [Compound 1, N-hydroxy-4-{2-[3-(N,N-dimethylaminomethyl)benzofuran-2-ylcarbonylamino]ethoxy}-benzamide], for which the bioavailability is approximately 27% in series [1] (2 mg/kg, immediate release capsules or an oral solution) and approximately 27% in series [1] (from AUC0-∞ oral vs IV, 2 mg/kg solution). Also, the half-maximal inhibitory concentration (IC50) in series [2] is less than 200 nM. The therapeutic effect result in series [3] (immediate release capsule, 2 or 3 consecutive doses each 4 to 6 hours apart on dosing days) is “achieved”. Moreover, the “incidence of Grade 4 thrombocytopenia (platelet count <25,000 per mm^2)” value in series [3] (in vivo, po) is recorded as “limited incidence”. Further, in series [3] (solid tumor and lymphoma patients, cycles of 7 days oral dosing then 7 days without dosing), the pharmacodynamic response result is “achieved”. The “effect on RAD51 (and other DNA repair genes)” value in the series with RAD51 is “able to turn off RAD51”. In addition, in series [4], the “efficacy in mouse tumor models” value was “efficacious”. Further, the “ex vivo activity in primary human tumors” value in series [5] is reported as “active”. Further, the “activity against tumor cell lines” value in the series with tumor cell lines is “active”.
As for `CC(C)C[C@H](NC(=O)[C@H](Cc1ccccc1)NC(=O)c1cnccn1)B(O)O` [bortezomib, reference compound], the half-inhibitory concentration (IC50) in series [2] is less than 50 nM.
